From patent publication US5714494A, “Xanthines in the 7th position with a benzyl acetic acid moiety” (Bayer Aktiengesellschaft, priority 1995, dated 1998)

What was measured:
[1] = test system: intestinal triglyceride absorption; test: Inhibition of intestinal triglyceride absorption in vivo (rats); set-up: species or system male Wistar rats; conditions: po; for ED50: Rattus norvegicus, serum triglyceride increase 2 h after triglyceride loading, fasting rats, read-out: Absorption ED50 or % inhibition; for Absorption ED50 or % inhibition: 2 h
Protocol: The substances which are to be investigated for their triglyceride absorption-inhibiting action in vivo are administered orally to male Wistar rats having a body weight of between 170 and 230 g. For this purpose, the animals are divided into groups of 6 animals 18 hours before administration of the substance and the feed is then withdrawn from them. Drinking water is available to the animals ad libitum. The animals of the control groups receive an aqueous tragacanth suspension or a tragacanth suspension which contains olive oil. The tragacanth-olive oil suspension is prepared using an Ultra-Turrax. The substances to be investigated are suspended directly before substance administration in a corresponding tragacanth-olive oil suspension, also using an Ultra-Turrax.
Before stomach tube application, blood is taken from each rat by puncture of the retroorbital venous plexus to determine the basal serum triglyceride content. The tragacanth suspension, the tragacanth-olive oil suspensions without substance (control animals) and the substances suspended in a corresponding tragacanth-olive oil suspension are then administered to the fasting animals using a stomach tube. Further taking of blood for the determination of the postprandial serum triglyceride rise is carried out, as a rule, 1,2 and 3 hours after stomach tube application.
The blood samples are centrifuged and, after recovering the serum, the triglycerides are determined photometrically using an EPOS analyzer 5060 (Eppendorf Geratebau, Netheler & Hinz GmbH, Hamburg). The triglycerides are determined by fully enzymatic means using a commercially available UV test.
The postprandial serum triglyceride increase is determined by subtraction of the triglyceride preliminary value of each animal from its corresponding postprandial triglyceride concentrations (1,2 and 3 hours after administration).
The differences (in mmol/l) at each time 1, 2 and 3 hours) are averaged in the groups, and the average values of the serum triglyceride increase (ΔTG) of the substance-treated animals are compared with the animals which only received the tragacanth-oil suspension.
Likewise, the serum triglyceride course of the control animals which received only tragacanth is calculated. The substance effect at each time (1, 2 or 3 hours) is determined as follows and given in Δ% of the oil-loaded control. [formula]
Effect of 10 mg of test substance/kg of body weight p.o. on the triglyceride increase (Δ%) 2 h after a triglyceride loading in the serum of fasting rats. The serum triglyceride increase of fat-loaded control animals based on the serum triglyceride level of tragacanth control animals corresponds to 100%. n=6 animals per group.
Statistical assessment was carried out using student3 s t test after prior checking of the variances for homogeneity.

[2] = test system: ApoB-100-associated lipoproteins; test: Inhibition of the release of ApoB-100-associated lipoproteins from HepG2 cells (immunoassay for human LDL); assay type: cell-based; conditions: light absorption 450 nm vs solvent control
Procedure, shortened: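 HepG2 cells grown in RPMI 1640 with 10% foetal calf serum, with ApoB-100 lipoprotein secreted into supernatant quantified by sandwich ELISA. Capture used affinity-purified rabbit anti-LDL and detection used peroxidase-conjugated monoclonal anti-LDL with TMB/H2O2, read at 450 nm after H2SO4. IC50 is the concentration halving absorbance versus solvent control.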

VLDL secretion [3] = test: Inhibition of VLDL secretion in vivo (rat) (Triton rat); conditions: Rattus norvegicus, po, 2 h; for inhibition in vivo at 3 mg/kg: 3 mg/kg p.o., (n.s.) for 112, 114, 117, 154, 175, 176, 227, read-out: Triton rat % TG inhibition (p.o.) 2 h after substance
Protocol: The action of the test substances on VLDL secretion is also investigated in the rat. To do this, 500 mg/kg of body weight (2.5 ml/kg) of Triton WR-1339, dissolved in physiological saline solution, are administered to rats intravenously in the tail vein. Triton WR-1339 inhibits lipoprotein lipase and thus leads through inhibition of VLDL catabolism to an increase in the triglyceride and cholesterol level. These increases can be used as a measure of the VLDL secretion rate.
Blood is taken from the animals before and one and two hours after administration of the detergent by puncture of the retroorbital venous plexus. The blood is incubated at room temperature for 1 h for clotting and the serum is recovered by centrifugation at 10,000 g for 20 s. The triglycerides are then determined photometrically at a wavelength of 540 nm by means of a commercially available coupled enzyme test (Sigma Diagnostics®, No. 339). Measurement is carried out with the aid of a likewise coupled enzyme test (Boehringer Mannheim®, No. 1442350) at a wavelength of 546 nm. Samples with triglyceride or cholesterol concentrations which exceed the measuring range of the methods are diluted with physiological saline solution. The respective serum concentrations are determined with the aid of standard series measured in parallel. Test substances are administered orally, intravenously or subcutaneously immediately after the Triton injection.

VLDL secretion [4] = test: Determination of VLDL secretion in vivo in the hamster (Triton hamster); set-up: species or system golden hamster; conditions: 6 mg/kg i.v.
Protocol: The effects of the test substances on VLDL secretion in vivo is investigated in the hamster. To do this, golden hamsters are anaesthetized with Ketavet (83 mg/kg s.c.) and Nembutal (50 mg/kg i.p.) after premedication with atropine ([…] s.c.). When the animals have become reflex-free, the jugular vein is exposed and cannulated. 0.25 ml/kg of a 20% strength solution of Triton WR 1339 in physiological saline solution is then administered. This detergent inhibits the lipoprotein lipase and thus leads to an increase in the triglyceride level as a result of lack of catabolism of secreted VLDL particles. This triglyceride increase can be used as a measure of the VLDL secretion rate. Blood is taken from the animals before and one and two hours after administration of the detergent by puncture of the retroorbital venous plexus. The blood is incubated for two hours at room temperature, then overnight at 4° C. in order to finish clotting completely. […] The triglyceride concentration in the serum thus obtained is determined with the aid of a modified commercially available enzyme test (Merckotest® triglyceride No. 14354). […] The optical density is then determined at a wavelength of 492 nm in an automatic plate-reading apparatus (SLT spectra). […] The triglyceride concentration contained in the samples is determined with the aid of a standard curve measured in parallel. […]

[5] = Homo sapiens, HepG2, HepG2 cells

SMILES	ED50 [1]	IC50 ([2]; HepG2 cells)	inhibition in vivo at 3 mg/kg (VLDL secretion [3])	Absorption ED50 or % inhibition [1]	IC50 [2, 5]	further results
Cn1c(=O)c2c(ncn2Cc2ccc(C(C(=O)N[C@@H](CO)c3ccccc3)C3CCCC3)cc2)n(C)c1=O (single isomer, unassigned) [Example 114]	< 2 mg/kg	39 nM	14.1%	–	–	–
Cn1c(=O)c2c(nc(Br)n2Cc2ccc(C(C(=O)N[C@@H](CO)c3ccccc3)C3CCCC3)cc2)n(C)c1=O (single isomer, unassigned) [Example 117]	3 mg/kg	3 nM	25%	–	–	–
Cn1c(=O)c2c(nc(-c3ccccc3)n2Cc2ccc(C(C(=O)N[C@@H](CO)c3ccccc3)C3CCCC3)cc2)n(C)c1=O (single isomer, unassigned) [Example 130]	5 mg/kg	25 nM	–	–	–	inhibition in vivo at 20 mg/kg (VLDL secretion [3]; 20 mg/kg p.o., read-out: Triton rat % TG inhibition (p.o.) 2 h after substance): 36%
Cc1ccc(-c2nc3c(c(=O)n(C)c(=O)n3C)n2Cc2ccc(C(C(=O)N[C@@H](CO)c3ccccc3)C3CCCC3)cc2)cc1 (single isomer, unassigned) [Example 136]	–	23 nM	28%	2 mg/kg	–	–
Cn1c(=O)c2c(nc(Cc3ccccc3)n2Cc2ccc(C(C(=O)N[C@@H](CO)c3ccccc3)C3CCCC3)cc2)n(C)c1=O (single isomer, unassigned) [Example 169]	–	3 nM	28%	2 mg/kg	–	inhibition in vivo at 5 mg/kg (VLDL secretion [3]; 5 mg/kg p.o., read-out: Triton rat % TG inhibition (p.o.) 2 h after substance): 41%; inhibition in vivo at 10 mg/kg (VLDL secretion [3]; 10 mg/kg p.o., read-out: Triton rat % TG inhibition (p.o.) 2 h after substance): 59.4%
Cc1ccc(-c2nc3c(c(=O)n(C)c(=O)n3C)n2Cc2ccc(C(C(=O)N[C@@H](CO)c3ccccc3)C3CCCC3)cc2)cc1 (stereo partly drawn) [Example 112]	3 mg/kg	–	17%	–	4 nM	–
Cn1c(=O)c2c(nc(-c3ccccc3)n2Cc2ccc(C(C(=O)N[C@@H](CO)c3ccccc3)C3CCCC3)cc2)n(C)c1=O (stereo partly drawn) [Example 129]	20 mg/kg	–	–	–	34 nM	Triton hamster % CH inhibition 2 h after substance (VLDL secretion [4]; cholesterol): 25%; Triton hamster % TG inhibition 2 h after substance (VLDL secretion [4]; triglycerides): 25%
Cn1c(=O)c2c(nc(-c3ccsc3)n2Cc2ccc(C(C(=O)N[C@@H](CO)c3ccccc3)C3CCCC3)cc2)n(C)c1=O (stereo partly drawn) [Example 154]	–	–	-4%	< 2 mg/kg	3 nM	–
Cn1c(=O)c2c(nc(-c3cccs3)n2Cc2ccc(C(C(=O)N[C@@H](CO)c3ccccc3)C3CCCC3)cc2)n(C)c1=O (stereo partly drawn) [Example 157]	–	–	11.3%	> 2 mg/kg	8 nM	–
Cn1c(=O)c2c(nc(CCc3ccccc3)n2Cc2ccc(C(C(=O)N[C@@H](CO)c3ccccc3)C3CCCC3)cc2)n(C)c1=O (stereo partly drawn) [Example 227, 2-(R&S)-Cyclopentyl-2-[4-(1,3-dimethyl-2,6-dioxo-8-(2-phenyl-ethyl)-1,2,3,6-tetra-hydro-purin-7-yl-methyl)phenyl]acet-N-[1-(R)-1-phenyl-2-hydroxy-ethyl)amide]	–	–	-8%	> 6 mg/kg	40 nM	–
